According to the supplement of paper PMC11451515:

Tested on: P12-Ichikawa
Assay: cell viability relative to DMSO control; higher = less cytotoxic
Details: 48 h
In short: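 NOMO1, SEM and P12-Ichikawa leukemia cells spent at least four passages adapting to each medium before use. They were seeded at 500 cells/well (NOMO1, SEM) or 1000 cells/well (P12-Ichikawa) in 5 μl in 1536-well plates and pin-dosed with library compounds in DMSO at 11 threefold steps from 47 μM down to 0.79 nM. After 48 h at 37°C, CellTiter-Glo One luminescence was read. Viability is reported as a percentage of the DMSO wells on each plate, with cell-free wells as background.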

[1] = HPLM + 10% dialyzed FBS, 0.000781 µM
[2] = HPLM + 10% dialyzed FBS, 0.00234 µM
[3] = HPLM + 10% dialyzed FBS, 0.00702 µM
[4] = HPLM + 10% dialyzed FBS, 0.0211 µM
[5] = HPLM + 10% dialyzed FBS, 0.0632 µM
[6] = HPLM + 10% dialyzed FBS, 0.19 µM
[7] = HPLM + 10% dialyzed FBS, 0.569 µM
[8] = HPLM + 10% dialyzed FBS, 1.71 µM
[9] = HPLM + 10% dialyzed FBS, 5.12 µM
[10] = HPLM + 10% dialyzed FBS, 15.4 µM
[11] = HPLM + 10% dialyzed FBS, 46.1 µM
[12] = RPMI 5 mM glucose + 10% FBS, 0.000781 µM
[13] = RPMI 5 mM glucose + 10% FBS, 0.00234 µM
[14] = RPMI 5 mM glucose + 10% FBS, 0.00702 µM
[15] = RPMI 5 mM glucose + 10% FBS, 0.0211 µM
[16] = RPMI 5 mM glucose + 10% FBS, 0.0632 µM
[17] = RPMI 5 mM glucose + 10% FBS, 0.19 µM
[18] = RPMI 5 mM glucose + 10% FBS, 0.569 µM
[19] = RPMI 5 mM glucose + 10% FBS, 1.71 µM
[20] = RPMI 5 mM glucose + 10% FBS, 5.12 µM
[21] = RPMI 5 mM glucose + 10% FBS, 15.4 µM
[22] = RPMI 5 mM glucose + 10% FBS, 46.1 µM
[23] = RPMI 5 mM glucose + 10% dialyzed FBS, 0.000781 µM
[24] = RPMI 5 mM glucose + 10% dialyzed FBS, 0.00234 µM
[25] = RPMI 5 mM glucose + 10% dialyzed FBS, 0.00702 µM
[26] = RPMI 5 mM glucose + 10% dialyzed FBS, 0.0211 µM
[27] = RPMI 5 mM glucose + 10% dialyzed FBS, 0.0632 µM
[28] = RPMI 5 mM glucose + 10% dialyzed FBS, 0.19 µM
[29] = RPMI 5 mM glucose + 10% dialyzed FBS, 0.569 µM
[30] = RPMI 5 mM glucose + 10% dialyzed FBS, 1.71 µM
[31] = RPMI 5 mM glucose + 10% dialyzed FBS, 5.12 µM
[32] = RPMI 5 mM glucose + 10% dialyzed FBS, 15.4 µM
[33] = RPMI 5 mM glucose + 10% dialyzed FBS, 46.1 µM

| SMILES | cell viability [1] | cell viability [2] | cell viability [3] | cell viability [4] | cell viability [5] | cell viability [6] | cell viability [7] | cell viability [8] | cell viability [9] | cell viability [10] | cell viability [11] | cell viability [12] | cell viability [13] | cell viability [14] | cell viability [15] | cell viability [16] | cell viability [17] | cell viability [18] | cell viability [19] | cell viability [20] | cell viability [21] | cell viability [22] | cell viability [23] | cell viability [24] | cell viability [25] | cell viability [26] | cell viability [27] | cell viability [28] | cell viability [29] | cell viability [30] | cell viability [31] | cell viability [32] | cell viability [33] |
| --- | --- | --- | --- | --- | --- | --- | --- | --- | --- | --- | --- | --- | --- | --- | --- | --- | --- | --- | --- | --- | --- | --- | --- | --- | --- | --- | --- | --- | --- | --- | --- | --- | --- |
| NC(=O)[C@H]1CCS[C@@H]2C[C@]3(CCCN3C(=O)Cc3ccc(NC(=O)COc4ccc(Cl)cc4Cl)cc3)C(=O)N12 | 113% | 115% | 120% | 110% | 114% | 101% | 73.1% | 16.5% | 18.6% | 18.5% | 12.8% | 110% | 109% | 120% | 111% | 128% | 110% | 106% | 40.3% | 16.5% | 22.9% | 17.5% | 124% | 120% | 130% | 134% | 127% | 125% | 116% | 70.3% | 28.7% | 39.2% | 23.8% |
| CCC(C)N1\N=C/N(C1=O)C2=CC=C(C=C2)N3CCN(CC3)C4=CC=C(OC[C@H]5CO[C@@](C[N]6C=NC=N6)(O5)C7=CC=C(Cl)C=C7Cl)C=C4 (some centres not stated) | 99.9% | 109% | 114% | 120% | 111% | 115% | 101% | 101% | 103% | 98.8% | 104% | 111% | 111% | 119% | 114% | 108% | 115% | 115% | 99.7% | 108% | 110% | 97.2% | 111% | 113% | 108% | 111% | 113% | 111% | 106% | 105% | 100% | 98.5% | 95.7% |
| O=C1\C=C/C=C2/[C@H]3CNC[C@H](C3)CN12 | 108% | 109% | 115% | 109% | 122% | 122% | 125% | 123% | 116% | 97.5% | 58.3% | 116% | 111% | 120% | 129% | 122% | 125% | 124% | 132% | 113% | 112% | 54.8% | 111% | 109% | 110% | 108% | 121% | 120% | 132% | 126% | 118% | 99.9% | 67.7% |
| C[C@H](CCC(=O)O)[C@H]1CCC2C3C[C@H](O)[C@@H]4C[C@H](O)CC[C@]4(C)C3CC[C@@]21C (some centres not stated) | 106% | 113% | 101% | 112% | 126% | 115% | 97.3% | 93.7% | 107% | 96.8% | 108% | 105% | 126% | 120% | 114% | 117% | 108% | 105% | 105% | 102% | 104% | 105% | 98.7% | 108% | 103% | 103% | 108% | 97.5% | 96.9% | 98.9% | 105% | 90.4% | 94.9% |
| Clc1cccc(-n2nnnc2NCc2ccccc2Oc2ccccn2)c1Cl | 120% | 120% | 116% | 124% | 123% | 136% | 133% | 133% | 133% | 131% | 127% | – | – | – | – | – | – | – | – | – | – | – | – | – | – | – | – | – | – | – | – | – | – |
| C[C@@H]1O[C@@H](O[C@H]2C[C@@H](O)[C@]3(CO)[C@H]4[C@H](O)C[C@]5(C)[C@@H](C6=CC(=O)OC6)CC[C@]5(O)[C@@H]4CC[C@]3(O)C2)[C@H](O)[C@H](O)[C@H]1O | 98.5% | 96.7% | 97.5% | 85.2% | 32.9% | 11.5% | 10.7% | 12.3% | 12.7% | 12.9% | 9.88% | 92.2% | 105% | 102% | 94.7% | 80% | 33.6% | 9.32% | 8.91% | 6.97% | 6.93% | 5.78% | 98.8% | 101% | 98.7% | 88.7% | 56.4% | 17.6% | 9.86% | 8.22% | 6.53% | 5.46% | 4.89% |
| COc1cc2ncn(-c3cc(OCc4ccccc4[S+](C)(=O)[O-])c(C#N)s3)c2cc1OC | 101% | 100% | 93.8% | 94% | 102% | 95.2% | 96.7% | 94.1% | 84.5% | 92% | 77.5% | 96.3% | 99% | 96.8% | 97.8% | 100% | 95.3% | 94.4% | 89.7% | 88.7% | 91.3% | 87.6% | 90.1% | 92.3% | 87.7% | 94.9% | 94.8% | 98% | 95.4% | 92.5% | 82.7% | 80% | 73.6% |
| COc1ccc(C(CN(C)C)C2(O)CCCCC2)cc1 (configuration not stated) | 111% | 106% | 108% | 107% | 115% | 114% | 95.3% | 96.5% | 106% | 98.2% | 108% | 116% | 115% | 134% | 151% | 120% | 91.1% | 81.8% | 97% | 106% | 85.7% | 109% | 98.4% | 111% | 109% | 103% | 120% | 106% | 105% | 106% | 101% | 91.5% | 97.1% |
